Tests used:
[1] = system: Septoria tritici; assay: In vivo preventive test on Septoria tritici (leaf spot on wheat); conditions: dose 500 ppm; wheat plants sprayed 24 h before contamination; grading 24 days after contamination
Description: Wheat plants (“Scipion” variety), sown in starter cups on a 50/50 peat soil-pozzolana substrate and grown at 22° C., are treated at the 1-leaf stage (10 cm height) by spraying with the active ingredient prepared as described above. Plants, used as controls, are treated with the mixture of acetone/tween/DMSO/water not containing the active material. After 24 hours, the plants are contaminated by spraying the leaves with an aqueous suspension of cryopreserved Septoria tritici spores (500 000 spores per ml). […] Grading (% of efficacy) is carried out 24 days after the contamination, in comparison with the control plants.

[2] = system: Sphaerotheca fuliginea; assay: In vivo preventive test on Sphaerotheca fuliginea (powdery mildew on cucurbits); conditions: dose 500 ppm; gherkin plants sprayed 24 h before contamination; grading 12 days after contamination
Description: Gherkin plants (“Vert petit de Paris” variety), sown in starter cups on a 50/50 peat soil-pozzolana substrate and grown at 24° C., are treated at the Z11 cotyledon stage by spraying with the active ingredient prepared as described above. Plants, used as controls, are treated with the mixture of acetone/tween/DMSO/water not containing the active material. After 24 hours, the plants are contaminated by spraying the cotyledons with an aqueous suspension of Sphaerotheca fuliginea spores (100 000 spores per ml). The spores are collected from infected plants. The contaminated to gherkin plants are incubated at about 20° C. and at 70-80% relative humidity. Grading (% of efficacy) is carried out 12 days after the contamination, in comparison with the control plants.

[3] = system: Alternaria brassicae; assay: In vivo preventive test on Alternaria brassicae (leaf spot on radish); conditions: dose 500 ppm; radish plants sprayed 24 h before contamination; grading 6 days after contamination vs control plants
Description: Radish plants (“Pernod Clair” variety), sown in starter cups on a 50/50 peat soil-pozzolana substrate and grown at 17° C., are treated at the cotyledon stage by spraying with the active ingredient prepared as described above. Plants, used as controls, are treated with the mixture of acetone/tween/DMSO/water not containing the active material. After 24 hours, the plants are contaminated by spraying the cotyledons with an aqueous suspension of Alternaria brassicae spores (50 000 spores per ml). The spores are collected from a 15-day-old culture. […] Grading (% of efficacy) is carried out 6 days after the contamination, in comparison with the control plants.

[4] = Measurement of log P values by HPLC on reversed phase columns (EEC directive 79/831 Annex V.A8); type: physicochemical
[5] = system: Pyrenophora teres; assay: In vivo preventive test on Pyrenophora teres (net blotch on barley); conditions: barley plants sprayed 24 h before contamination, grading 14 days after contamination
Description: Barley plants (“Plaisant” variety), sown in starter cups on a 50/50 peat soil-pozzolana substrate and grown at 22° C., are treated at the 1-leaf stage (10 cm height) by spraying with the active ingredient prepared as described above. Plants, used as controls, are treated with the mixture of acetone/tween/DMSO/water not containing the active material. After 24 hours, the plants are contaminated by spraying the leaves with an aqueous suspension of Pyrenophora teres spores (12 000 spores per ml). The spores are collected from a 12-day-old culture. […] Grading (% of efficacy) is carried out 14 days after the contamination, in comparison with the control plants.

[6] = system: Uromyces appendiculatus; assay: In vivo preventive test on Uromyces appendiculatus (bean rust); conditions: bean plants sprayed 24 h before contamination, grading 11 days after contamination
Method in brief: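 Saxa bean plants grown at 24° C were sprayed at the 2-leaf stage (9 cm) with compound in acetone/tween/DMSO/water; controls got solvent mix only. Leaves inoculated 24 h later with U. appendiculatus spores (150 000 spores/ml). Efficacy (%) graded 11 days post-inoculation versus controls.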

[7] = system: Puccinia recondita; assay: In vivo preventive test on Puccinia recondita (brown rust on wheat); conditions: wheat plants sprayed 24 h before contamination, grading 12 days after contamination
Description: Plants, used as controls, are treated with the mixture of acetone/tween/DMSO/water not containing the active material. After 24 hours, the plants are contaminated by spraying the leaves with an aqueous suspension of Puccinia recondita spores (100 000 spores per ml). […] Grading (% of efficacy) is carried out 12 days after the contamination, in comparison with the control plants.

[8] = system: Botrytis cinerea; assay: In vivo preventive test on Botrytis cinerea (grey mould); conditions: gherkin plants sprayed 24 h before contamination, grading 4 to 5 days after contamination
Description: Gherkin plants (“Vert petit de Paris” variety), sown in starter cups on a 50/50 peat soil-pozzolana substrate and grown at 24° C., are treated at the Z11 cotyledon stage by spraying with the active ingredient prepared as described above. Plants, used as controls, are treated with the mixture of acetone/tween/DMSO/water not containing the active material. After 24 hours, the plants are contaminated by spraying the cotyledons with an aqueous suspension of cryopreserved Botrytis cinerea spores (50 000 spores per ml). The spores are suspended in a nutrient solution composed of 10 g/L of PDB, 50 g/L of D-Fructose, 2 g/L of NH4NO3 and 1 g/L of KH2PO4. […] Grading (% of efficacy) is carried out 4 to 5 days after the contamination, in comparison with the control plants.

[9] = system: Pyricularia oryzae; type: in vivo; conditions: dose 500 ppm; rice plants sprayed 24 h before contamination; grading 6 days after contamination

SMILES	Eff. % [1] [%]	Eff. % [2] [%]	Eff. % [3] [%]	logP ([4]; method marked [a])	Eff. % ([5]; dose 500 ppm) [%]	Eff. % ([6]; dose 500 ppm) [%]	Eff. % ([7]; dose 500 ppm) [%]	Eff. % ([8]; dose 500 ppm) [%]	logP ([4]; method marked [b])	Eff. % ([5]; dose 100 ppm) [%]	Eff. % ([6]; dose 100 ppm) [%]	Eff. % ([7]; dose 100 ppm) [%]	Eff. % ([8]; dose 100 ppm) [%]	Eff. % [9] [%]
CC1c2c(NC(=O)c3c(C(F)F)nn(C)c3F)cccc2C(C)(C)C1C (stereo not shown) [Example 64]	93	100	100	3.96[a]	97	100	100	100	–	–	–	–	–	–
Cn1nc(C(F)F)c(C(=O)Nc2cccc3c2CCC32CC2)c1F [Example 11]	–	–	92	3.33[a]	80	100	98	98	–	–	–	–	–	–
CC1CC(CC(C)(C)C)c2cccc(NC(=O)c3c(C(F)F)nn(C)c3F)c21 (stereo not shown) [Example 70]	79	100	89	4.92[a]	–	100	98	–	–	–	–	–	–	–
CCC1Cc2c(NC(=O)c3c(C(F)F)nn(C)c3Cl)cccc2C1(C)C (stereo not shown) [Example 90]	79	100	90	4.61[a]	75	100	100	–	–	–	–	–	–	–
CC1CC(C(C)C)c2cccc(NC(=O)c3c(C(F)F)nn(C)c3F)c21 (stereo not shown) [Example 34]	85	95	93	4.19[a]	97	100	97	–	–	–	–	–	–	–
CC1c2cccc(NC(=O)c3c(C(F)F)nn(C)c3F)c2CC12CCCC2 (stereo not shown) [Example 32]	90	98	93	4.39[a]	97	100	100	–	–	–	–	–	–	–
CC1CC2(CC2)c2cccc(NC(=O)c3c(C(F)F)nn(C)c3F)c21 (stereo not shown) [Example 50]	–	98	93	3.55[a]	80	100	98	100	–	–	–	–	–	–
CC(C)C1Cc2c(NC(=O)c3c(C(F)F)nn(C)c3F)cccc2C1(C)C (stereo not shown) [Example 5]	93	100	100	4.69[a]	–	100	100	–	–	–	–	–	–	–
CC1CC(C)(C)c2c(C3CC3)ccc(NC(=O)c3c(C(F)F)nn(C)c3F)c21 (stereo not shown) [Example 17]	–	–	–	4.35[a];	97	97	94	98	4.28[b]	–	–	–	–	–
CC1CC2(CCCC2)c2cccc(NC(=O)c3c(C(F)F)nn(C)c3F)c21 (stereo not shown) [Example 103]	–	–	–	4.39[a]	–	–	–	–	–	80	100	98	100	–
CC1Cc2c(NC(=O)c3c(C(F)F)nn(C)c3F)cccc2C1(C)C (stereo not shown) [Example 45]	–	100	–	3.94[a]	–	100	100	–	–	–	–	–	–	83
